# Where a name gives a salt, the structure may show the parent alone. Read-outs that look alike come from different tables or passages of the source.
# Experiments:
# in vitro = assay: in vitro; parameters: MTT metabolic activity assay, absorbance at 570 nm; settings: human, single replicate
# Procedure: (§1) A colorimetric MTT cell metabolic activity assay was used to determine the cytotoxicity of Bis-PMSs 5 and 6. For these experiments, the HF-P4, BJ-hTERT, BLM, A-2058, U-2 OS, H1299 and BT-20 cells were cultured under standard conditions (37 °C, humidified atmosphere with 5% CO2 in air) in culture medium (DMEM, RPMI-1640, McCoy’s or EMEM with 10% FBS). Cells were plated in 96-well plates at a density of 5000 cells per well and grown for 24 h. The medium was then replaced with a medium containing Bis-PMSs 5 and 6, and cells were cultured for an additional 48 h. Afterwards, the medium was exchanged for medium with the MTT yellow tetrazolium dye (3-(4,5-dimethylthiazol-2-yl)-2,5-diphenyltetrazolium bromide, Sigma-Aldrich) and incubated for 2 h at 37 °C. After that, the yellow tetrazole dye was removed and DMSO was used to dissolve the reduced purple formazan formed in living cells. The absorbance of the converted dye was measured at a wavelength of 570 nm with the reference of 630 nm using a SpectraMax ABS Plus microplate reader (Molecular Devices). Experiments were performed in quadruplicate and repeated three times with similar results. In U251MG and GL261 cells, an assay assessing cell growth independent of mitochondrial respiration was used. Cells were plated in 96-well plates at a density of 5000 cells per well and grown for 24 h under standard conditions in culture medium (DMEM and RPMI-1640 with 10% FBS for U251MG and Gl261 cells, respectively). The medium was then replaced by that supplemented with Bis-PMSs 5 and 6. After 72 h of exposure, surviving cells were fixed and stained with [compound left out] blue (5 g/L in 50%, v/v, ethanol) and lysed with 1% sodium dodecyl sulfate, and the relative cell number was determined by reading absorbance at 630 nm using a 96-well plate reader (Sunrise; Tecan, Männedorf, Switzerland). The cell inhibitory concentration (IC) was calculated using the equation IC = (APMS well/mean Acontrol wells) × 100%. The half-maximal inhibitory concentration (IC50) was calculated from dose–response curves using GraphPad Prism software (v. 8.0.1, La Jolla, CA, USA). The selectivity indexes towards cancer cells were calculated as a ratio of the average of the IC50 values for HF-P4 and BJ-hTERT human fibroblasts and the IC50 value for the corresponding cancer cell line. For U251MG and Gl261 glioblastoma cells, the cytoselectivity was calculated against normal HF P4 fibroblast cells, which were analyzed using the same cytotoxicity assay. The cytotoxic activities of Bis-PMSs 5 and 6 were evaluated in normal (HF-P4 and BJ-hTERT fibroblasts) and malignant (BLM, A-2058, U-2 OS, H1299, BT-20) cells using a conventional MTT viability assay. For the measurements, cells were exposed to 0–10 µM of Bis-PMSs 5 and 6 under standard conditions in a complete cell culture medium and cell viability was measured after 48 h of treatment. In addition, cytotoxicity was tested in U251MG and Gl261 glioma cells using an assay that assesses cell growth independent of mitochondrial respiration (Figures S10 and S11 and Table S3).
# HFP4 = assay: in vitro; parameters: MTT metabolic activity assay, absorbance at 570 nm; settings: single replicate, 48 h
# Procedure: as §1
# BJ-hTERT = assay: in vitro; parameters: MTT metabolic activity assay, absorbance at 570 nm; settings: single replicate, 48 h
# Procedure: as §1
# BT-20 = assay: cells; parameters: MTT metabolic activity assay, absorbance at 570 nm; settings: Homo sapiens, BT-20, 48 h, single replicate
# Procedure: as §1
# U2-OS = assay: cells; parameters: MTT metabolic activity assay, absorbance at 570 nm; settings: Homo sapiens, U2OS, 48 h, single replicate
# Procedure: as §1
# H1299 = assay: cells; parameters: MTT metabolic activity assay, absorbance at 570 nm; settings: Homo sapiens, NCI-H1299, 48 h, single replicate
# Procedure: as §1
# A2058 = assay: cells; parameters: MTT metabolic activity assay, absorbance at 570 nm; settings: Homo sapiens, A2058, 48 h, single replicate
# Procedure: as §1
# BLM = assay: cells; parameters: MTT metabolic activity assay, absorbance at 570 nm; settings: 48 h, single replicate
# Procedure: as §1
# Gl261 = assay: cells; parameters: Cell growth by dye staining of fixed cells, absorbance at 630 nm, independent of mitochondrial respiration; settings: Mus musculus, GL261, 72 h, single replicate
# Procedure: as §1
# U251 = assay: cells; parameters: Cell growth by dye staining of fixed cells, absorbance at 630 nm, independent of mitochondrial respiration; settings: Homo sapiens, U-251, 72 h, single replicate
# Procedure: as §1
# [1] = biological target: T1, IL-6R (IL-6 receptor containing α and β subunits) (Homo sapiens, UniProt P08887+P40189); assay: microscale thermophoresis (T-jump); type: binding; settings: read-out: dissociation constant
# T1 construct: gene IL6R; commercial IL-6R (Bio-Techne R&D Systems), said to contain alpha and beta subunits
# T1 sequence (P08887 20-365 limits assumed): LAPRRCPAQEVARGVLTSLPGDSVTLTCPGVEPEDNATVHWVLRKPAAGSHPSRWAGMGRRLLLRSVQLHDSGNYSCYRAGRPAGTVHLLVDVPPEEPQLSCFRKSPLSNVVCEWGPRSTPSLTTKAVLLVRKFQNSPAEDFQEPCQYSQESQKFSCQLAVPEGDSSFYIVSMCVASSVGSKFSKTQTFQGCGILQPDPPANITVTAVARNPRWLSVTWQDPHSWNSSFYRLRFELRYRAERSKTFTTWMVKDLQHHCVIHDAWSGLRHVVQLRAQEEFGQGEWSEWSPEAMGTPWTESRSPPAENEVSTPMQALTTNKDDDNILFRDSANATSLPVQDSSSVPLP
# T1 sequence (P40189 23-619 limits assumed): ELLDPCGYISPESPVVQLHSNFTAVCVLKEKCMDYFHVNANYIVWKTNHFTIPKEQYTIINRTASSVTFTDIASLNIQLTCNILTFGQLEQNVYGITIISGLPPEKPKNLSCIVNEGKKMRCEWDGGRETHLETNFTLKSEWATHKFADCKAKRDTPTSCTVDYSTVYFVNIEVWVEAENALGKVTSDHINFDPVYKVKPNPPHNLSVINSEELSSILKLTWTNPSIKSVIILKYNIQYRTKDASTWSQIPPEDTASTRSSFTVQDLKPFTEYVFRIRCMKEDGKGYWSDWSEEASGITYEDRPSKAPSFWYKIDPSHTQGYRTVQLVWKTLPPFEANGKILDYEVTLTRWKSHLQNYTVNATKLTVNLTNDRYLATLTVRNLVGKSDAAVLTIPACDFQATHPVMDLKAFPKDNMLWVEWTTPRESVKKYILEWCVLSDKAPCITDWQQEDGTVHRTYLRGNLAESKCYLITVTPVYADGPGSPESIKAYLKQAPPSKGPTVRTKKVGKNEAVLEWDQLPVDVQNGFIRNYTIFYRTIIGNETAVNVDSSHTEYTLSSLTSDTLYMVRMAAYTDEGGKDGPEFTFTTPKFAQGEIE
# IL-6R (Homo sapiens) = IL-6R (Homo sapiens) (UniProt P08887); settings: cited from earlier work
# [2] = replicate 3, read-out: Bis-PMS 6 (IC50 / µM)
# [3] = replicate 2, read-out: Bis-PMS 6 (IC50 / µM)
# [4] = replicate 1, read-out: Bis-PMS 6 (IC50 / µM)
# [5] = replicate 1, read-out: Bis-PMS 5 (IC50 / µM)
# [6] = replicate 2, read-out: Bis-PMS 5 (IC50 / µM)
# [7] = replicate 3, read-out: Bis-PMS 5 (IC50 / µM)
compound,measurement,setting,value
"CN1C(=CC=C(C=CC2=[N+](C)c3ccccc3C2(C)C)c2cccc(C(C=CC3=[N+](C)c4ccccc4C3(C)C)=CC=C3N(C)c4ccccc4C3(C)C)c2)C(C)(C)c2ccccc21 [compound 6, m-bis-pentamethinium salt 6]",CC50 at 48 h,"in vitro; hf-p4 cells, Bis-PMS 6 (IC50 / µM), replicate 1",1.05 µM
same,CC50,HFP4; [2],1.95 µM
same,CC50,BJ-hTERT; [3],1.66 µM
same,CC50,BJ-hTERT; [2],0.776 µM
same,IC50,BT-20; [4],0.724 µM
same,IC50,BT-20; [3],0.617 µM
same,IC50,BT-20; [2],0.997 µM
same,IC50,U2-OS; [4],0.257 µM
same,IC50,U2-OS; [3],0.347 µM
same,IC50,U2-OS; [2],0.123 µM
same,IC50,H1299; [3],0.199 µM
same,IC50,H1299; [2],0.138 µM
same,IC50,A2058; [4],0.191 µM
same,IC50,A2058; [3],1.07 µM
same,IC50,A2058; [2],0.646 µM
same,IC50,BLM; [4],0.933 µM
same,IC50,BLM; [2],1.91 µM
same,IC50,Gl261; [4],0.218 µM
same,IC50,Gl261; [3],0.319 µM
same,IC50,U251; [4],0.485 µM
same,IC50,U251; [3],0.526 µM
same,Kd,[1],304 ± 27.6 nM
"CN1C(=CC=C(C=CC2=[N+](C)c3ccccc3C2(C)C)c2ccc(C(C=CC3=[N+](C)c4ccccc4C3(C)C)=CC=C3N(C)c4ccccc4C3(C)C)cc2)C(C)(C)c2ccccc21 [compound 5, p-bis-pentamethinium salt 5]",CC50 at 48 h,"in vitro; bj-htert cells, Bis-PMS 5 (IC50 / µM), replicate 2",1.7 µM
same,CC50,HFP4; [5],1.78 µM
same,CC50,HFP4; [6],0.427 µM
same,CC50,HFP4; [7],0.757 µM
same,CC50,BJ-hTERT; [7],1.62 µM
same,IC50,BT-20; [5],0.832 µM
same,IC50,BT-20; [6],0.38 µM
same,IC50,BT-20; [7],0.891 µM
same,IC50,U2-OS; [5],0.562 µM
same,IC50,U2-OS; [6],0.631 µM
same,IC50,U2-OS; [7],0.295 µM
same,IC50,H1299; [5],2.69 µM
same,IC50,H1299; [6],2.82 µM
same,IC50,A2058; [6],0.396 µM
same,IC50,A2058; [7],0.178 µM
same,IC50,BLM; [5],0.417 µM
same,IC50,BLM; [7],0.183 µM
same,IC50,Gl261; [5],0.9 µM
same,IC50,Gl261; [6],1.04 µM
same,IC50,U251; [5],0.501 µM
same,IC50,U251; [6],0.938 µM
same,Kd,[1],26.5 ± 2.5 nM
tocilizumab,Kd,IL-6R (Homo sapiens),2.54 nM
